System: SARS-CoV-2 replicon
Format: cell-based
Details: read-out: SARS-CoV-2 Replicon (Huh-7cell) EC50

Compound	EC50 [nM]
CCCCCOC(=O)C[C@H](N[P@@](=O)(OC[C@H]1O[C@@](C#N)(c2ccc3c(N)ncnn23)[C@H](OC(=O)C(C)C)[C@@H]1OC(=O)C(C)C)Oc1ccccc1)C(=O)OCCCCC [Compound 38a, (2R,3R,4R,5R)-2-(4-aminopyrrolo[2,1-f][1,2,4]triazin-7-yl)-2-cyano-5-((((R)-(((S)-1,4-dipentyloxy-1,4-dioxobutan-2-yl)amino)(phenoxy)phosphoryl)oxy)methyl)tetrahydrofuran-3,4-diyl bis(2-methylpropionate)]	50 to 500
CC(=O)OCO[P@](=O)(OC[C@H]1O[C@@](C#N)(c2ccc3c(N)ncnn23)[C@H](OC(=O)C(C)C)[C@@H]1OC(=O)C(C)C)Oc1ccc(C(C)(C)C)cc1 [Compound 43b, (2R,3R,4R,5R)-2-(4-aminopyrrolo[2,1-f][1,2,4]triazin-7-yl)-5-(((((R)-acetoxylmethoxy)(4-tert-butylphenoxy)phosphoryl)oxy)methyl)-2-cyanotetrahydrofuran-3,4-diyl bis(2-methylpropionate)]	5 to 10
CCC(CC)COC(=O)[C@H](C)N[P@@](=O)(OCOC(=O)C(C)(C)C)OC[C@H]1O[C@@](C#N)(c2ccc3c(N)ncnn23)[C@H](OC(=O)C(C)C)[C@@H]1OC(=O)C(C)C [Compound 11b, (2R,3R,4R,5R)-2-(4-aminopyrrolo[2,1-f][1,2,4]triazin-7-yl)-2-cyano-5-((((S)-(((S)-1-(2-ethylbutoxy)-1-oxopropan-2-yl)amino)((pivaloyloxy)methoxy)phosphoryl)oxy)methyl)tetrahydrofuran-3,4-diyl bis(2-methylpropionate)]	< 5
CC(C)C(=O)O[C@H]1[C@@H](OC(=O)C(C)C)[C@](C#N)(c2ccc3c(N)ncnn23)O[C@@H]1CO[P@@](=O)(OCOC(=O)C(C)(C)C)Oc1ccc(C(C)(C)C)cc1 [Compound 44b, (2R,3R,4R,5R)-2-(4-aminopyrrolo[2,1-f][1,2,4]triazin-7-yl)-5-(((((R)-4-tert-butylphenoxy)(((tert-butylcarbonyl)oxy)methoxy)phosphoryl)oxy)methyl)-2-cyanotetrahydrofuran-3,4-diyl bis(2-methylpropionate)]	10 to 50
CCC(CC)COC(=O)[C@H](Cc1ccccc1)N[P@@](=O)(OC[C@H]1O[C@@](C#N)(c2ccc3c(N)ncnn23)[C@H](OC(=O)C(C)C)[C@@H]1OC(=O)C(C)C)Oc1ccccc1 [Compound 41a, (2R,3R,4R,5R)-2-(4-aminopyrrolo[2,1-f][1,2,4]triazin-7-yl)-2-cyano-5-((((R)-(((S)-1-(2-ethylbutoxy)-1-oxo-3-phenylpropan-2-yl)amino)(phenoxy)phosphoryl)oxy)methyl)tetrahydrofuran-3,4-diyl bis(2-methylpropionate)]	50 to 500
CC(C)C(=O)OCO[P@@](=O)(OC[C@H]1O[C@@](C#N)(c2ccc3c(N)ncnn23)[C@H](OC(=O)C(C)C)[C@@H]1OC(=O)C(C)C)Oc1ccc(C(C)(C)C)cc1 [Compound 26a, (2R,3R,4R,5R)-2-(4-aminopyrrolo[2,1-f][1,2,4]triazin-7-yl)-5-((((S)-(4-tert-butylphenoxy)((isobutyryloxy)methoxy)phosphoryl)oxy)methyl)-2-cyanotetrahydrofuran-3,4-diyl bis(2-methylpropionate)]	5 to 10
CC(C)C(=O)O[C@H]1[C@@H](OC(=O)C(C)C)[C@](C#N)(c2ccc3c(N)ncnn23)O[C@@H]1CO[P@@](=O)(N[C@@H](Cc1ccccc1)C(=O)OC1CCC1)Oc1ccccc1 [Compound 63b, (2R,3R,4R,5R)-2-(4-aminopyrrolo[2,1-f][1,2,4]triazin-7-yl)-2-cyano-5-((((S)-(((S)-1-cyclobutoxy-1-oxo-3-phenylpropan-2-yl)amino)(phenoxy)phosphoryl)oxy)methyl)tetrahydrofuran-3,4-diyl bis(2-methylpropionate)]	< 5
CCC(=O)O[C@H]1[C@@H](OC(=O)CC)[C@](C#N)(c2ccc3c(N)ncnn23)O[C@@H]1CO[P@](=O)(N[C@@H](C)C(=O)OCC(CC)CC)OCOC(=O)OC(C)C [Compound 6a, (2R,3R,4R,5R)-2-(4-aminopyrrolo[2,1-f][1,2,4]triazin-7-yl)-2-cyano-5-((((R)-(((S)-1-(2-ethylbutoxy)-1-oxopropan-2-yl)amino)(((isopropoxycarbonyl)oxy)methoxy)phosphoryl)oxy)methyl)tetrahydrofuran-3,4-diyl dipropionate]	5 to 10
CCCCCCCCCCCCOC(=O)[C@H](C)N[P@@](=O)(OC[C@H]1O[C@@](C#N)(c2ccc3c(N)ncnn23)[C@H](OC(=O)C(C)C)[C@@H]1OC(=O)C(C)C)Oc1ccccc1 [Compound 46a]	50 to 500
(2R,3R,4R,5R)-2-(4-aminopyrrolo[2,1-f][1,2,4]triazin-7-yl)-2-cyano-5-((((R)-(((S)-1-isopropoxy-1-oxopropan-2-yl)amino)(((isopropoxycarbonyl)oxy)methoxy)phosphoryl)oxy)methyl)tetrahydrofuran-3,4-diyl diacetate [Compound 1a]	10 to 50
COC(C)(C)COC(=O)[C@H](Cc1ccccc1)N[P@@](=O)(OC[C@H]1O[C@@](C#N)(c2ccc3c(N)ncnn23)[C@H](OC(=O)C(C)C)[C@@H]1OC(=O)C(C)C)Oc1ccccc1 [Compound 64a, (2R,3R,4R,5R)-2-(4-aminopyrrolo[2,1-f][1,2,4]triazin-7-yl)-2-cyano-5-((((R)-(((S)-1-(2-methoxy-2-methylpropoxy)-1-oxo-3-phenylpropan-2-yl)amino)(phenoxy)phosphoryl)oxy)methyl)tetrahydrofuran-3,4-diyl bis(2-methylpropionate)]	< 5
CC(C)C(=O)O[C@H]1[C@@H](OC(=O)C(C)C)[C@](C#N)(c2ccc3c(N)ncnn23)O[C@@H]1CO[P@](=O)(N[C@@H](CC(=O)OC1CCC1)C(=O)OC1CCC1)Oc1ccccc1 [Compound 54a, (2R,3R,4R,5R)-2-(4-aminopyrrolo[2,1-f][1,2,4]triazin-7-yl)-2-cyano-5-((((R)-(((S)-1,4-dicyclobutoxy-1,4-dioxobutan-2-yl)amino)(phenoxy)phosphoryl)oxy)methyl)tetrahydrofuran-3,4-diyl bis(2-methylpropionate)]	10 to 50
CCC(=O)O[C@H]1[C@@H](OC(=O)CC)[C@](C#N)(c2ccc3c(N)ncnn23)O[C@@H]1COP(=O)(OCOC(=O)OC(C)C)OCOC(=O)OC(C)C [Compound 18, (2R,3R,4R,5R)-2-(4-aminopyrrolo[2,1-f][1,2,4]triazin-7-yl)-5-((((bis(((isopropoxycarbonyl)oxy)methoxy))phosphoryl)oxy)methyl)-2-cyanotetrahydrofuran-3,4-diyl dipropionate]	< 5
CCC(CC)COC(=O)[C@H](C)N[P@@](=O)(OCOC(=O)OC(C)C)OC[C@H]1O[C@@](C#N)(c2ccc3c(N)ncnn23)[C@H](OC(=O)C(C)C)[C@@H]1OC(=O)C(C)C [Compound 7b, (2R,3R,4R,5R)-2-(4-aminopyrrolo[2,1-f][1,2,4]triazin-7-yl)-2-cyano-5-((((S)-(((S)-1-(2-ethylbutoxy)-1-oxopropan-2-yl)amino)(((isopropoxycarbonyl)oxy)methoxy)phosphoryl)oxy)methyl)tetrahydrofuran-3,4-diyl bis(2-methylpropionate)]	10 to 50
CC(C)C(=O)O[C@H]1[C@@H](OC(=O)C(C)C)[C@](C#N)(c2ccc3c(N)ncnn23)O[C@@H]1CO[P@](=O)(OCOC(=O)C(C)(C)C)Oc1ccc(C(C)(C)C)cc1 [Compound 44a, (2R,3R,4R,5R)-2-(4-aminopyrrolo[2,1-f][1,2,4]triazin-7-yl)-5-(((((S)-4-tert-butylphenoxy)(((tert-butylcarbonyl)oxy)methoxy)phosphoryl)oxy)methyl)-2-cyanotetrahydrofuran-3,4-diyl bis(2-methylpropionate)]	5 to 10
CCCCCOC(=O)C[C@H](N[P@@](=O)(OC[C@H]1O[C@@](C#N)(c2ccc3c(N)ncnn23)[C@H](OC(=O)C(C)C)[C@@H]1OC(=O)C(C)C)Oc1ccc(C(C)(C)C)cc1)C(=O)OCCCCC [Compound 39a, (2R,3R,4R,5R)-2-(4-aminopyrrolo[2,1-f][1,2,4]triazin-7-yl)-2-cyano-5-((((R)-(((S)-1,4-dipentyloxy-1,4-dioxobutan-2-yl)amino)(4-tert-butylphenoxy)phosphoryl)oxy)methyl)tetrahydrofuran-3,4-diyl bis(2-methylpropionate)]	50 to 500
CC(=O)OCO[P@@](=O)(OC[C@H]1O[C@@](C#N)(c2ccc3c(N)ncnn23)[C@H](OC(=O)C(C)C)[C@@H]1OC(=O)C(C)C)Oc1ccc(C(C)(C)C)cc1 [Compound 43a, (2R,3R,4R,5R)-2-(4-aminopyrrolo[2,1-f][1,2,4]triazin-7-yl)-5-(((((S)-acetoxylmethoxy)(4-tert-butylphenoxy)phosphoryl)oxy)methyl)-2-cyanotetrahydrofuran-3,4-diyl bis(2-methylpropionate)]	5 to 10
CCC(CC)COC(=O)C[C@H](N[P@@](=O)(OC[C@H]1O[C@@](C#N)(c2ccc3c(N)ncnn23)[C@H](OC(=O)C(C)C)[C@@H]1OC(=O)C(C)C)Oc1ccccc1)C(=O)OCC(CC)CC [Compound 62a, (2R,3R,4R,5R)-2-(4-aminopyrrolo[2,1-f][1,2,4]triazin-7-yl)-2-cyano-5-((((R)-(((S)-1,4-bis(2-ethylbutoxy)-1,4-dioxobutan-2-yl)amino)(phenoxy)phosphoryl)oxy)methyl)tetrahydrofuran-3,4-diyl bis(2-methylpropionate)]	50 to 500
CCC(CC)COC(=O)[C@H](C)N[P@](=O)(OCOC(=O)C(C)(C)C)OC[C@H]1O[C@@](C#N)(c2ccc3c(N)ncnn23)[C@H](OC(=O)C(C)(C)C)[C@@H]1OC(=O)C(C)(C)C [Compound 12a, (2R,3R,4R,5R)-2-(4-aminopyrrolo[2,1-f][1,2,4]triazin-7-yl)-2-cyano-5-((((R)-(((S)-1-(2-ethylbutoxy)-1-oxopropan-2-yl)amino)((pivaloyloxy)methoxy)phosphoryl)oxy)methyl)tetrahydrofuran-3,4-diyl bis(2,2-dimethylpropionate)]	50 to 500
